Experiment in all cases: Kinase selectivity, scanMAX Kinase assay panel (DiscoverX), % control at 1 uM
Holding throughout (assay type): binding

Assay [1] has as its target T1, scanMAX Kinase assay panel (Homo sapiens, UniProt O75914).
T1 construct: purchased DiscoverX
The following applies: PAK3; 1 uM; read-out: Percent Control (%). The method in brief:
(§1)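 1 uM cpd (DMSO) per kinase; % ctrl = [cpd − pos ctrl]/[neg ctrl − pos ctrl] × 100; hit if <35.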

Assay [2] addresses T2, scanMAX Kinase assay panel (Homo sapiens, UniProt P42679).
T2 construct: purchased DiscoverX
T2 sequence (P42679 1-507): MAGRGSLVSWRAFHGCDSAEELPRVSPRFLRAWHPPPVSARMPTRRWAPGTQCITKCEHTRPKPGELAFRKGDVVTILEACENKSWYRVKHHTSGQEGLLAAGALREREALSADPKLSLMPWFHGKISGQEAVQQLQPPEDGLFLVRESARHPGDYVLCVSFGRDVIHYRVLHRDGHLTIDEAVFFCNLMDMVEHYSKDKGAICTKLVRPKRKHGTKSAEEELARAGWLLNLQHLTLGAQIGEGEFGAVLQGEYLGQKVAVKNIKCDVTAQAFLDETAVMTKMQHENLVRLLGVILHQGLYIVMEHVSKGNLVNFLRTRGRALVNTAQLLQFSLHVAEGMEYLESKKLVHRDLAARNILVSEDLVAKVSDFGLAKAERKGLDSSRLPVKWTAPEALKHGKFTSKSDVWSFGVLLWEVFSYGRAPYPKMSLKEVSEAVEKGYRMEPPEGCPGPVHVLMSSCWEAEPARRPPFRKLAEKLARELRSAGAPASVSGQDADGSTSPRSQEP
The following applies: CTK; 1 uM; read-out: Percent Control (%). The method in brief:
as §1

Assay [3] concerns the target T3, scanMAX Kinase assay panel (Homo sapiens, UniProt P54753).
T3 construct: purchased DiscoverX
T3 sequence (P54753 34-998): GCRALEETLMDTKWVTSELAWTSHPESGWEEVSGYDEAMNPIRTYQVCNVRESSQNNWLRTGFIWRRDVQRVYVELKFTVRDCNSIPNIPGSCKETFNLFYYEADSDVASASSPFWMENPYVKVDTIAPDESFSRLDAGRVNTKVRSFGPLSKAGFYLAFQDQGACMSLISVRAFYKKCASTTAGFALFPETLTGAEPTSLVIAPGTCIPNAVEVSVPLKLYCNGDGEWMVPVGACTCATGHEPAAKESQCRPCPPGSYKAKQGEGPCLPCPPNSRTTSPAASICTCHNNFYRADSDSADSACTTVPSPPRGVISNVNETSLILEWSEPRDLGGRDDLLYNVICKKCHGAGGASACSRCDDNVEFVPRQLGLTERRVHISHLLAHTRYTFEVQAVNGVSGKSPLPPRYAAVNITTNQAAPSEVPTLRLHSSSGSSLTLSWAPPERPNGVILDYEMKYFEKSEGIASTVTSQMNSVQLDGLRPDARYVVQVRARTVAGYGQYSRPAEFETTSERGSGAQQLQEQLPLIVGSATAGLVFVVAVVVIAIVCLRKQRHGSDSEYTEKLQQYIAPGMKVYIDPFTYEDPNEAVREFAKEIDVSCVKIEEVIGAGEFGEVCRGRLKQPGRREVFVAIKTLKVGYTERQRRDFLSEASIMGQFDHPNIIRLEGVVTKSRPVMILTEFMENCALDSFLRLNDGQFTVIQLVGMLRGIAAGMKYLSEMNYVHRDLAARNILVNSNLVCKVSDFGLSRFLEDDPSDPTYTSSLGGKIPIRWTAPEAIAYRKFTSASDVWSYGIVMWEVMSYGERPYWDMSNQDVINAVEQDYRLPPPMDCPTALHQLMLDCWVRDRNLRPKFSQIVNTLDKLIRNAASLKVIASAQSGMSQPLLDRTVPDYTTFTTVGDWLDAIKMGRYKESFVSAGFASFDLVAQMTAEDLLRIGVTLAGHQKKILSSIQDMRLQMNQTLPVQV
As to conditions: EPHB3; 1 uM; read-out: Percent Control (%). The method in brief: as §1

The target in assay [4] is T4, scanMAX Kinase assay panel (Homo sapiens, UniProt Q9NRM7).
T4 construct: purchased DiscoverX
T4 sequence (Q9NRM7 1-1088): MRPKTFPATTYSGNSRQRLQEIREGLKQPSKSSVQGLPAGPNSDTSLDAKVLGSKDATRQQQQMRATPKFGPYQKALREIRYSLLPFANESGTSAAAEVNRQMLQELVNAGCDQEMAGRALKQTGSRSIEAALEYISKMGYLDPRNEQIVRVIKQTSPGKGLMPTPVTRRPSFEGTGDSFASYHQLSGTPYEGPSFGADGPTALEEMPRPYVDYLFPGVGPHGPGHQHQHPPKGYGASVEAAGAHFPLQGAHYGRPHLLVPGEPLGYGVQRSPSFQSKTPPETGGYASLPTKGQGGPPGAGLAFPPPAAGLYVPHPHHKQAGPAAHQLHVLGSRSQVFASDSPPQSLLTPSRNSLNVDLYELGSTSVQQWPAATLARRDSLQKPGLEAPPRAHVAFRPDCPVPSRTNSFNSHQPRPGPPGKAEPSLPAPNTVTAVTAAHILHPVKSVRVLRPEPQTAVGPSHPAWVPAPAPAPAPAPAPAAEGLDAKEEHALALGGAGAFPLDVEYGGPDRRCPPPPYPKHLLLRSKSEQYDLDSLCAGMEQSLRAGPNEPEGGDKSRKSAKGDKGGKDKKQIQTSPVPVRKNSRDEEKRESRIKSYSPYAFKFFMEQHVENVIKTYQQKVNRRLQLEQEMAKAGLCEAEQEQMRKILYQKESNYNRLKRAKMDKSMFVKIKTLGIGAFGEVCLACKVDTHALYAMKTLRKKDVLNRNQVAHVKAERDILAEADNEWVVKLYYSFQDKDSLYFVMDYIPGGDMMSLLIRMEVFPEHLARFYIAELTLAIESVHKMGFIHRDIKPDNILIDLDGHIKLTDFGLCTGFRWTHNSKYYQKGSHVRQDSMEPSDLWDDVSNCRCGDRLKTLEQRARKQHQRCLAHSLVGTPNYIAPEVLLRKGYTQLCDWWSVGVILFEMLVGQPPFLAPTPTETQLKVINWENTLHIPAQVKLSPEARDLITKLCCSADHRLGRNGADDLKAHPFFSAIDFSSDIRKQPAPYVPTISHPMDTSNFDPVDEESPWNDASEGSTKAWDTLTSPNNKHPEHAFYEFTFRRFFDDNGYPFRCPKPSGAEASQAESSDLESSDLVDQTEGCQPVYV
The following applies: LATS2; 1 uM; read-out: Percent Control (%). The method in brief:
as §1

T1 sequence (O75914 whole entry): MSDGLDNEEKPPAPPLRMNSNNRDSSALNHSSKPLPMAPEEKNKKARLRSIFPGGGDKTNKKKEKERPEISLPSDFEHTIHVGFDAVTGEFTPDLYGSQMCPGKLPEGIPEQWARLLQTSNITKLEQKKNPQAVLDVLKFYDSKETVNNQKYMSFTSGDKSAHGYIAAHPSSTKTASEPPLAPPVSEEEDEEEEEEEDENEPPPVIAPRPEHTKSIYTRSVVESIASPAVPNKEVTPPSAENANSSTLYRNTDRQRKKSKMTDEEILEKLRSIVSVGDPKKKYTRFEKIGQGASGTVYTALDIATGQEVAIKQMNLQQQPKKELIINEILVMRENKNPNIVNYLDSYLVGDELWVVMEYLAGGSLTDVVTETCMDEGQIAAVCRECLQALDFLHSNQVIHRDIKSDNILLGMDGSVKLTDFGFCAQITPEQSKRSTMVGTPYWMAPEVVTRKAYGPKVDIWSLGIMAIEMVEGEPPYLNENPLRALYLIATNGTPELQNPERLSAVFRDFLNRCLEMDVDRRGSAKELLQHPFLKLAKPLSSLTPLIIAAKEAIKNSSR

Regarding `Cc1ccc(C(=O)Nc2ccc(CN3CCN(C)CC3)c(C(F)(F)F)c2)cc1C#Cc1cnc2c(Nc3cnn(C)c3)cccn12` [Example 1, 4-methyl-3-((8-((1-methyl-1H-pyrazol-4-yl)amino)imidazo[1,2-a]pyridin-3-yl)ethynyl)-N-(4-((4-methylpiperazin-1-yl)methyl)-3-(trifluoromethyl)phenyl)benzamide], the remaining binding at 1 µM in assay [1] is 85%; in assay [2], 22%; in assay [3], 47%; in assay [4] it was 67%.
For `Cc1cn(-c2cc(NC(=O)c3ccc(C)c(C#Cc4cnc5c(Nc6cnn(C)c6)cccn45)c3)cc(C(F)(F)F)c2)cn1` [Example 12, 4-methyl-N-(3-(4-methyl-1H-imidazol-1-yl)-5-(trifluoromethyl)phenyl)-3-((8-((1-methyl-1H-pyrazol-4-yl)amino)imidazo[1,2-a]pyridin-3-yl)ethynyl)benzamide], in that order: 95%, 74%, 100% and 98%.
For `Cc1ccc(NC(=O)C2(C(=O)Nc3ccc(F)cc3)CC2)cc1C#Cc1cnc2c(Nc3cnn(C(C)C)c3)cccn12` [Example 78], in that order: 83%, 90%, 100% and 100%.

These data come from patent US10870647B2, “Imidazopyridine derivative, method for preparing same, and pharmaceutical composition containing same as active ingredient for preventing or treating cancer” (DAEGU-GYEONGBUK MEDICAL INNOVATION FOUNDATION, priority 2016, dated 2020).
